Source: PMC3531393, “In Vitro Evaluation of ESE-15-ol, an Estradiol Analogue with Nanomolar Antimitotic and Carbonic Anhydrase Inhibitory Activity” (PLoS ONE, 2012)

Molecular target: T1, carbonic anhydrase II (CAII) (Homo sapiens, UniProt P00918)
T1 construct: gene CA2; wild-type
Assay: […] exchange between CO2 and water by membrane-inlet mass spectrometry; Henderson tight-binding analysis
Assay type: biochemical

Q: How did the Ki turn out when `CCc1cc2c(cc1OS(N)(=O)=O)CC[C@@H]1C2CC[C@]2(C)[C@@H](O)C=C[C@@H]12` (stereo partly shown) [ESE-15-ol, 2-ethyl-3-O-sulphamoyl-estra-1,3,5(10),15-tetraen-17-ol] was run?
A: 0.167 ± 0.019 µM
